In the NIST ThermoML archive (doi:10.1021/je800110r):
“And” between values parts separate entries of the source, which are not always exact repeats. Equal entries are not always repeated.

Conditions: Liquid, Vibrating tube method

CCCCCCCCCC [decane]
Conditions | mass density
313.16 K, 749 kPa | 715.1 kg/m3
313.16 K, 764 kPa | 715.3 kg/m3
313.16 K, 784 kPa | 715.3 kg/m3
313.16 K, 800 kPa | 715.3 kg/m3
313.16 K, 813 kPa | 715.2 kg/m3
313.16 K, 837 kPa | 715.4 kg/m3
313.16 K, 852 kPa | 715.2 kg/m3
313.16 K, 870 kPa | 715.4 kg/m3
313.16 K, 891 kPa | 715.4 kg/m3
313.16 K, 916 kPa | 715.3 kg/m3
313.16 K, 938 kPa | 715.3 kg/m3
313.16 K, 958 kPa | 715.5 kg/m3
313.16 K, 978 kPa | 715.4 kg/m3
323.14 K, 3098 kPa | 709.7 kg/m3
323.14 K, 3118 kPa | 709.8 kg/m3
323.14 K, 3138 kPa | 709.6 kg/m3
323.14 K, 3156 kPa | 709.6 kg/m3
323.14 K, 3176 kPa | 709.7 kg/m3
323.14 K, 3200 kPa | 709.7 kg/m3
323.14 K, 3221 kPa | 709.8 kg/m3
323.14 K, 3243 kPa | 709.8 kg/m3
323.14 K, 3271 kPa | 709.9 kg/m3
323.14 K, 3297 kPa | 709.9 kg/m3
323.14 K, 3322 kPa | 709.9 kg/m3
323.14 K, 3345 kPa | 709.8 kg/m3
323.14 K, 3372 kPa | 709.8 kg/m3
323.14 K, 3400 kPa | 710 kg/m3
323.14 K, 3430 kPa | 709.9 kg/m3
323.14 K, 3451 kPa | 710 kg/m3
323.14 K, 3477 kPa | 710 kg/m3
323.14 K, 3502 kPa | 710.1 kg/m3
323.14 K, 3524 kPa | 710.2 kg/m3
323.14 K, 3549 kPa | 710.1 kg/m3
323.14 K, 3571 kPa | 710.1 kg/m3
323.14 K, 3597 kPa | 710.2 kg/m3
323.14 K, 3614 kPa | 710.1 kg/m3
323.14 K, 3637 kPa | 710.2 kg/m3
323.14 K, 3661 kPa | 710.2 kg/m3
323.14 K, 3681 kPa | 710.1 kg/m3
323.14 K, 3715 kPa | 710.2 kg/m3
323.14 K, 3736 kPa | 710.3 kg/m3
323.14 K, 3761 kPa | 710.4 kg/m3
323.14 K, 3794 kPa | 710.3 kg/m3
323.14 K, 3819 kPa | 710.3 kg/m3
323.14 K, 3849 kPa | 710.3 kg/m3
323.14 K, 3879 kPa | 710.4 kg/m3
323.14 K, 3911 kPa | 710.4 kg/m3
323.14 K, 3939 kPa | 710.5 kg/m3
323.14 K, 3959 kPa | 710.5 kg/m3
323.14 K, 3978 kPa | 710.4 kg/m3
323.14 K, 4004 kPa | 710.5 kg/m3
323.14 K, 4033 kPa | 710.5 kg/m3
323.14 K, 4053 kPa | 710.5 kg/m3
323.14 K, 4078 kPa | 710.6 kg/m3
323.14 K, 4103 kPa | 710.7 kg/m3
323.14 K, 4122 kPa | 710.7 kg/m3
323.14 K, 4144 kPa | 710.6 kg/m3
323.14 K, 4164 kPa | 710.6 kg/m3
323.14 K, 4191 kPa | 710.6 kg/m3
323.14 K, 4213 kPa | 710.8 kg/m3
323.14 K, 4230 kPa | 710.8 kg/m3
323.14 K, 4248 kPa | 710.7 kg/m3
323.14 K, 4405 kPa | 710.9 kg/m3
323.14 K, 4447 kPa | 710.9 kg/m3
323.14 K, 4462 kPa | 710.9 kg/m3
323.14 K, 4506 kPa | 711 kg/m3
323.14 K, 4528 kPa | 711 kg/m3
323.14 K, 4550 kPa | 711 kg/m3
323.14 K, 4566 kPa | 711 kg/m3
323.14 K, 4587 kPa | 711 kg/m3
323.14 K, 4704 kPa | 711.1 kg/m3
323.14 K, 4721 kPa | 711.2 kg/m3
323.14 K, 4739 kPa | 711.2 kg/m3
323.14 K, 4770 kPa | 711.2 kg/m3
323.14 K, 4793 kPa | 711.3 kg/m3
323.14 K, 4804 kPa | 711.2 kg/m3
323.14 K, 4818 kPa | 711.3 kg/m3
323.14 K, 4838 kPa | 711.3 kg/m3
323.14 K, 4970 kPa | 711.3 kg/m3
323.14 K, 5064 kPa | 711.5 kg/m3
323.14 K, 5127 kPa | 711.5 kg/m3
323.14 K, 5175 kPa | 711.5 kg/m3
323.14 K, 5178 kPa | 711.6 kg/m3
323.14 K, 5183 kPa | 711.6 kg/m3
323.14 K, 5184 kPa | 711.5 kg/m3
323.14 K, 5187 kPa | 711.6 kg/m3
323.14 K, 5189 kPa | 711.6 kg/m3
323.14 K, 5191 kPa | 711.6 kg/m3
323.14 K, 5192 kPa | 711.5 kg/m3 and 711.6 kg/m3
323.14 K, 5193 kPa | 711.5 kg/m3
323.14 K, 5216 kPa | 711.7 kg/m3
323.14 K, 5238 kPa | 711.6 kg/m3
323.14 K, 5256 kPa | 711.7 kg/m3
323.14 K, 5276 kPa | 711.6 kg/m3
323.14 K, 5291 kPa | 711.7 kg/m3
323.14 K, 5312 kPa | 711.6 kg/m3
323.14 K, 5335 kPa | 711.7 kg/m3
323.14 K, 5353 kPa | 711.8 kg/m3
323.14 K, 5375 kPa | 711.7 kg/m3
323.14 K, 5406 kPa | 711.8 kg/m3
323.14 K, 5428 kPa | 711.7 kg/m3
323.14 K, 5450 kPa | 711.7 kg/m3
323.14 K, 5468 kPa | 711.9 kg/m3
323.14 K, 5487 kPa | 711.9 kg/m3
323.14 K, 5506 kPa | 711.8 kg/m3
323.14 K, 5535 kPa | 711.9 kg/m3
323.14 K, 5551 kPa | 711.8 kg/m3
323.14 K, 5575 kPa | 712 kg/m3
323.14 K, 5594 kPa | 711.9 kg/m3
323.14 K, 5611 kPa | 712 kg/m3
323.14 K, 5631 kPa | 712 kg/m3
323.14 K, 5670 kPa | 712 kg/m3
323.14 K, 5697 kPa | 712.1 kg/m3
323.14 K, 5721 kPa | 712.1 kg/m3
323.14 K, 5738 kPa | 712.1 kg/m3
323.14 K, 5756 kPa | 712 kg/m3
323.14 K, 5770 kPa | 712 kg/m3
323.14 K, 5788 kPa | 712 kg/m3
323.14 K, 5909 kPa | 712.2 kg/m3
323.14 K, 5924 kPa | 712.2 kg/m3
323.14 K, 5940 kPa | 712.3 kg/m3
323.14 K, 5955 kPa | 712.2 kg/m3
323.14 K, 5968 kPa | 712.3 kg/m3
323.14 K, 5986 kPa | 712.3 kg/m3
323.14 K, 6004 kPa | 712.2 kg/m3
323.14 K, 6022 kPa | 712.4 kg/m3
323.14 K, 6037 kPa | 712.3 kg/m3
323.14 K, 6056 kPa | 712.3 kg/m3
323.14 K, 6076 kPa | 712.5 kg/m3
323.14 K, 6089 kPa | 712.4 kg/m3
323.14 K, 6105 kPa | 712.3 kg/m3
323.14 K, 6124 kPa | 712.5 kg/m3
323.14 K, 6144 kPa | 712.5 kg/m3
323.14 K, 6167 kPa | 712.5 kg/m3
323.14 K, 6179 kPa | 712.3 kg/m3
323.14 K, 6202 kPa | 712.5 kg/m3
323.14 K, 6217 kPa | 712.4 kg/m3
